Measurements from patent publication US20190330224A1, “ACC INHIBITORS AND USES THEREOF” (Gilead Apollo, LLC, priority 2015, published 2019).
≈ marks a conversion by molar mass, not a printed value.

What was measured:
C. albicans ATCC 90028 = assay: Anti-Fungal Activity Assay (broth microtiter MIC), C. albicans; type: cell-based, Candida albicans; details: Candida albicans, ATCC90028, 48 h, 3 replicates; MIC recorded at 48 h; read-out: MIC C. albicans ATCC 90028
In short: (§1)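 Susceptibility testing used direct colony suspensions in RPMI 1640+MOPS from Sabouraud dextrose agar grown at 35° C. Endpoints were visual MICs at 48 h under CLSI M27-A3 microtiter conditions, plus a 24 h reading for soraphen.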

[1] = test system: C. parapsilosis ATCC 22019; assay: Anti-Fungal Activity Assay (broth microtiter MIC), C. parapsilosis; type: cell-based, Candida parapsilosis; details: Lodderomyces parapsilosis, ATCC22019, 48 h, 3 replicates; MIC recorded at 48 h; read-out: MIC C. parapsilosis ATCC 22019
In short: as §1

Fungal ACC2 = Fungal ACC2 (UniProt Q00955); details: read-out: Fungal ACC2 (IC50, in vitro ACC2 inhibition)
Fungal ACC2, sequence (Q00955 whole entry): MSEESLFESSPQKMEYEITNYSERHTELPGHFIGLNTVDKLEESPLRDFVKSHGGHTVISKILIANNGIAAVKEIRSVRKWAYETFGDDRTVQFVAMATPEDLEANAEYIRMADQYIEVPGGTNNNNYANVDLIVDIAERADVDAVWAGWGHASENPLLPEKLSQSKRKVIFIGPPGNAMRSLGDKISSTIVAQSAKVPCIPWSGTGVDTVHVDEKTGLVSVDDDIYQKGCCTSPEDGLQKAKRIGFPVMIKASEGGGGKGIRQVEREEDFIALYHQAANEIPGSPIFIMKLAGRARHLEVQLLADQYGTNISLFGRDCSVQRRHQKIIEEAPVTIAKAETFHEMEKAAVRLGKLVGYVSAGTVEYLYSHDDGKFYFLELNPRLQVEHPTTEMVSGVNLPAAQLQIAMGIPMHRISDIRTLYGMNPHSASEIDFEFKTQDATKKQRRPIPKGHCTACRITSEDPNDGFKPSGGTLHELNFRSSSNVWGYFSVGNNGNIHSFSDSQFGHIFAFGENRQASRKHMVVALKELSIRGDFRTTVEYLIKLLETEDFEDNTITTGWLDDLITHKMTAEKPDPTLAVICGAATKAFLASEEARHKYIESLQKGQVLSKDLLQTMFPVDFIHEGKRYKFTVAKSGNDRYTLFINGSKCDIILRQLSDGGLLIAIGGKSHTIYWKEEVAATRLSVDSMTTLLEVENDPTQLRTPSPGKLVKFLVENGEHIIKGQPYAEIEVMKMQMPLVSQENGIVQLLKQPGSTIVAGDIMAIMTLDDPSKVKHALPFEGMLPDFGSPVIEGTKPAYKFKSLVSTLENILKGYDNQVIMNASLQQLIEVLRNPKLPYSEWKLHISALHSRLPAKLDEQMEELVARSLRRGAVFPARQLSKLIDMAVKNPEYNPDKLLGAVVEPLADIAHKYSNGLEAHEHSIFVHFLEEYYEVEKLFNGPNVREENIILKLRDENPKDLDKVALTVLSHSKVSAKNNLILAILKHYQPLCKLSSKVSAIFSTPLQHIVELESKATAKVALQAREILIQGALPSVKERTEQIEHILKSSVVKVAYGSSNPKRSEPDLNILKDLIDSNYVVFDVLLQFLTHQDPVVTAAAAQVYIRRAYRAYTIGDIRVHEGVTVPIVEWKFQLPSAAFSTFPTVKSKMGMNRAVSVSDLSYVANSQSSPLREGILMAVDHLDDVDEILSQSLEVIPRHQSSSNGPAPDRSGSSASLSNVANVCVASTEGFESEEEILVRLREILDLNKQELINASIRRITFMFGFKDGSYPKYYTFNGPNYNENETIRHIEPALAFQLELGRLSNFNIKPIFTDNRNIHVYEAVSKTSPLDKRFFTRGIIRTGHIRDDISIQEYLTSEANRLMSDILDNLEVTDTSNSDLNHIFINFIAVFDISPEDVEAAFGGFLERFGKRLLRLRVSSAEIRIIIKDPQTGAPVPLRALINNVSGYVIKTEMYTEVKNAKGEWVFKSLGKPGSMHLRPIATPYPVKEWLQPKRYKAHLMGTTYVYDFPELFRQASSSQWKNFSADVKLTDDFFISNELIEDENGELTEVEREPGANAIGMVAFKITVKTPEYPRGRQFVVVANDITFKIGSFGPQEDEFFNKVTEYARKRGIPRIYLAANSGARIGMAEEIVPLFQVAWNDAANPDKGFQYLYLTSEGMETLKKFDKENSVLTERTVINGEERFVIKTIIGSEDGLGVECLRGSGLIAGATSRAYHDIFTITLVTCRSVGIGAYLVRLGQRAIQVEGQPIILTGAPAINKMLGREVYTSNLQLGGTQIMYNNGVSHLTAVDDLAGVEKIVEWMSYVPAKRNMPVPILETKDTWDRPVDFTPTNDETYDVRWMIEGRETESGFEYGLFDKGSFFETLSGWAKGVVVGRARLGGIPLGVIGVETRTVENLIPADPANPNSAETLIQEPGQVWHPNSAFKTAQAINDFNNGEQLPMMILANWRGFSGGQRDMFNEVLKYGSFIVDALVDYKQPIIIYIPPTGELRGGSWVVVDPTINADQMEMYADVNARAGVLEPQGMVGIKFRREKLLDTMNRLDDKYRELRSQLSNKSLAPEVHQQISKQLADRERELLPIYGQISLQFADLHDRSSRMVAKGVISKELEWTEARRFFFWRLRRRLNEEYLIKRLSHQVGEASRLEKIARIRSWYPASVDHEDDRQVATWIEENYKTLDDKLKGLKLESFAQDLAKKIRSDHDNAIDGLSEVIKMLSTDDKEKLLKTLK

C. krusei ATCC 6258 = assay: Anti-Fungal Activity Assay (broth microtiter MIC), C. krusei; type: cell-based, Candida krusei; details: Pichia kudriavzevii, ATCC6258, 48 h, 3 replicates; MIC recorded at 48 h; read-out: MIC C. krusei ATCC 6258
In short: as §1

Human ACC2 = Human ACC2 (Homo sapiens, UniProt O00763); assay: In vitro ACC2 inhibition assay (ADP-Glo), human ACC2; type: biochemical; details: 5 nM ACC2, 20 μM ATP, 20 μM acetyl-CoA
Human ACC2, sequence (O00763 whole entry): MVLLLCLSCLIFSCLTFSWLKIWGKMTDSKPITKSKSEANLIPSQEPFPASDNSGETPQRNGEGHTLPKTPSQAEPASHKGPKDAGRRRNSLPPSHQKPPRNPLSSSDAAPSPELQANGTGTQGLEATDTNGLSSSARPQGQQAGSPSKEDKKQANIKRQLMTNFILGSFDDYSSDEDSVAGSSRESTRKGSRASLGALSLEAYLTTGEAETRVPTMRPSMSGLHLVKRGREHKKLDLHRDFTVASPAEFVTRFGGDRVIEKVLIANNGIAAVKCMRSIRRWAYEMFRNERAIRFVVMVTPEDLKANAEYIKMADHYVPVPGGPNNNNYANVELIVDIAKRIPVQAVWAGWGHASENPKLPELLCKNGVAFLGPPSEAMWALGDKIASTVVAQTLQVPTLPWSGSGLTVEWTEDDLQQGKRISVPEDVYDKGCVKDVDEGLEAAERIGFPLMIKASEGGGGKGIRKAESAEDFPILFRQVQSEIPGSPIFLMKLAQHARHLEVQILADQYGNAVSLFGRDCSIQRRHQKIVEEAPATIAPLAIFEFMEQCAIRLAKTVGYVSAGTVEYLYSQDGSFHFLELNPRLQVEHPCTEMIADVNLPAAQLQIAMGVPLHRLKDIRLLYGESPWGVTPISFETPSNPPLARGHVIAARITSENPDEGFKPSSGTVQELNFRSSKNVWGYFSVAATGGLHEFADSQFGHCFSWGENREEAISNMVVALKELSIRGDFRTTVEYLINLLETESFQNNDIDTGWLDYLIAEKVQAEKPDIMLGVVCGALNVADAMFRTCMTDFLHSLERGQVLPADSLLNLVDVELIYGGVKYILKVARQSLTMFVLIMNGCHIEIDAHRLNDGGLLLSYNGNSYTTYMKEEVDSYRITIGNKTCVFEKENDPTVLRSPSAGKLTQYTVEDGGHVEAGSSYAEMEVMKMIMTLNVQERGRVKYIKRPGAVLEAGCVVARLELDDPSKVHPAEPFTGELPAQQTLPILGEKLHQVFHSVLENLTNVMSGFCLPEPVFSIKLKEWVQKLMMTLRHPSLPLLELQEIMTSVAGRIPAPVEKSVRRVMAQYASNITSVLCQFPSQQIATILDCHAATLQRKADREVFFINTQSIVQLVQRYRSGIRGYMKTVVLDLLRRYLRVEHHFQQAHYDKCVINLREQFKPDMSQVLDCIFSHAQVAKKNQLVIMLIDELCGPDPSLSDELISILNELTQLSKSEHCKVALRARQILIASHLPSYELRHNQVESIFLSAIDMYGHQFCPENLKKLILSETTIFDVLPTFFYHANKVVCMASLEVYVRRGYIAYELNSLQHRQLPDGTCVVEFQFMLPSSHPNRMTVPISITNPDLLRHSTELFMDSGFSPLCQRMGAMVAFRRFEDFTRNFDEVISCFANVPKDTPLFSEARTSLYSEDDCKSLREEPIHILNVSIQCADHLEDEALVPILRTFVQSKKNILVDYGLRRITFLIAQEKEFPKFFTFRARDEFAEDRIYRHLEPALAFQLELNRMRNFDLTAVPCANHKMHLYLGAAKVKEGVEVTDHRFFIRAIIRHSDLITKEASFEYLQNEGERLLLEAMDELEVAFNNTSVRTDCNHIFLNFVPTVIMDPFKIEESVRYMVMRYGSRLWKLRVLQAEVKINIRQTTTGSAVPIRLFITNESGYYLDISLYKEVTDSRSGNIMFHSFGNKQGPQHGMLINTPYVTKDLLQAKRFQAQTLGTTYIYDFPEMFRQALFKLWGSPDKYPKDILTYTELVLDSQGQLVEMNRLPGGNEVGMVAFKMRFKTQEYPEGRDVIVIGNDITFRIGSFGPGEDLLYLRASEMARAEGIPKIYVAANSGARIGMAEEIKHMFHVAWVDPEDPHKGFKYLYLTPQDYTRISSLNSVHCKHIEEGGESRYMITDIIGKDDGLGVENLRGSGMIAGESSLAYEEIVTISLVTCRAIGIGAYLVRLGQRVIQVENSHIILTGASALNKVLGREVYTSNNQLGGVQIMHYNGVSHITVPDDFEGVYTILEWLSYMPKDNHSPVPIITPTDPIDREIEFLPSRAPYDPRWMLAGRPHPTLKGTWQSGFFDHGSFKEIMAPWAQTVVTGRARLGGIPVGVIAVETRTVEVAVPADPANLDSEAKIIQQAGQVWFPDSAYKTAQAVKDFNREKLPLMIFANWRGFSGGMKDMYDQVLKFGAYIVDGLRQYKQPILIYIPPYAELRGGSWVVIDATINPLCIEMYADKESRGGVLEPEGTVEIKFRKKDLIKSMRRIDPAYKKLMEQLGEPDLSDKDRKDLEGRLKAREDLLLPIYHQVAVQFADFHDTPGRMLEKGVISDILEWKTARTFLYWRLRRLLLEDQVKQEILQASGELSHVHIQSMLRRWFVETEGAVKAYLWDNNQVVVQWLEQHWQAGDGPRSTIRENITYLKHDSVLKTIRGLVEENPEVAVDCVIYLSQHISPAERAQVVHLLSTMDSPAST

Compound	MIC (C. albicans ATCC 90028)	MIC [1]	IC50 (Fungal ACC2)	MIC (C. krusei ATCC 6258)	IC50 (Human ACC2)
COc1ccc(F)cc1[C@H](Cn1c(=O)n([C@H]2CCN(C)C2=O)c(=O)c2c(C)c(-n3nccn3)sc21)O[C@H]1CC[C@@H](O)CC1 [Compound I-152, 1-((R)-2-(5-fluoro-2-methoxyphenyl)-2-(((1 s, 4S)-4-hydroxycyclohexyl)oxy)ethyl)-5-methyl-3-((S)-1-methyl-2-oxopyrrolidin-3-yl)-6-(2H-1,2,3-triazol-2-yl)thieno[2,3-d]pyrimidine-2,4(1H,3H)-dione]	0.25 to 1 µg/mL (≈ 0.408 to 1.63 µM)	0.25 to 1 µg/mL (≈ 0.408 to 1.63 µM)	2 to 10 nM	0.25 to 1 µg/mL (≈ 0.408 to 1.63 µM)	2 to 10 nM
COc1ccc(F)cc1[C@H](Cn1c(=O)n([C@@H]2CCN(C)C2=O)c(=O)c2c(C)c(-n3nccn3)sc21)O[C@H]1CC[C@@H](O)CC1 [Compound I-153, 1-((R)-2-(5-fluoro-2-methoxyphenyl)-2-(((1 s, 4S)-4-hydroxycyclohexyl)oxy)ethyl)-5-methyl-3-((R)-1-methyl-2-oxopyrrolidin-3-yl)-6-(2H-1,2,3-triazol-2-yl)thieno[2,3-d]pyrimidine-2,4(1H,3H)-dione]	0.075 to 0.24 µg/mL (≈ 0.122 to 0.392 µM)	0.25 to 1 µg/mL (≈ 0.408 to 1.63 µM)	0.7 to 2 nM	0.25 to 1 µg/mL (≈ 0.408 to 1.63 µM)	2 to 10 nM
COc1ccc(F)cc1[C@H](Cn1c(=O)n([C@H]2CCN(C)C2=O)c(=O)c2c(C)c(-n3nccn3)sc21)OCCCO [Compound I-154, 1-((R)-2-(5-fluoro-2-methoxyphenyl)-2-(3-hydroxy-propoxy)ethyl)-5-methyl-3-((S)-1-methyl-2-oxopyrrolidin-3-yl)-6-(2H-1,2,3-triazol-2-yl)thieno[2,3-d]pyrimidine-2,4(1H,3H)-dione]	2.1 to 4 µg/mL (≈ 3.67 to 6.99 µM)	2.1 to 4 µg/mL (≈ 3.67 to 6.99 µM)	0.7 to 2 nM	0.25 to 1 µg/mL (≈ 0.437 to 1.75 µM)	2 to 10 nM
COc1ccc(F)cc1[C@H](Cn1c(=O)n([C@@H]2CCN(C)C2=O)c(=O)c2c(C)c(-n3nccn3)sc21)OCCCO [Compound I-155, 1-((R)-2-(5-fluoro-2-methoxyphenyl)-2-(3-hydroxypropoxy)ethyl)-5-methyl-3-((R)-1-methyl-2-oxopyrrolidin-3-yl)-6-(2H-1,2,3-triazol-2-yl)thieno[2,3-d]pyrimidine-2,4(1H,3H)-dione]	2.1 to 4 µg/mL (≈ 3.67 to 6.99 µM)	2.1 to 4 µg/mL (≈ 3.67 to 6.99 µM)	0.7 to 2 nM	2.1 to 4 µg/mL (≈ 3.67 to 6.99 µM)	2 to 10 nM
COc1ccc(F)cc1[C@H](COc1nc2sc(-n3nccn3)c(C)c2c(=O)n1[C@H]1CCN(C)C1=O)OCCCO [Compound I-156, 2-((R)-2-(5-fluoro-2-methoxyphenyl)-2-(3-hydroxy-propoxy)ethoxy)-5-methyl-3-((S)-1-methyl-2-oxopyrrolidin-3-yl)-6-(2H-1,2,3-triazol-2-yl)thieno[2,3-d]pyrimidin-4(3H)-one]	2.1 to 4 µg/mL (≈ 3.67 to 6.99 µM)	2.1 to 4 µg/mL (≈ 3.67 to 6.99 µM)	100 to 1000 nM	2.1 to 4 µg/mL (≈ 3.67 to 6.99 µM)	> 1000 nM
COCCO[C@@H](Cn1c(=O)n([C@H]2CCN(C)C2=O)c(=O)c2c(C)c(-n3nccn3)sc21)c1cc(F)ccc1O [Compound I-157, 1-((R)-2-(5-fluoro-2-hydroxyphenyl)-2-(2-methoxyethoxy)ethyl)-5-methyl-3-((S)-1-methyl-2-oxopyrrolidin-3-yl)-6-(2H-1,2,3-triazol-2-yl)thieno[2,3-d]pyrimidine-2,4(1H,3H)-dione]	2.1 to 4 µg/mL (≈ 3.76 to 7.16 µM)	2.1 to 4 µg/mL (≈ 3.76 to 7.16 µM)	2 to 10 nM	2.1 to 4 µg/mL (≈ 3.76 to 7.16 µM)	100 to 1000 nM
COCCO[C@@H](Cn1c(=O)n([C@@H]2CCN(C)C2=O)c(=O)c2c(C)c(-n3nccn3)sc21)c1cc(F)ccc1O [Compound I-158, 1-((R)-2-(5-fluoro-2-hydroxyphenyl)-2-(2-methoxyethoxy)ethyl)-5-methyl-3-((R)-1-methyl-2-oxopyrrolidin-3-yl)-6-(2H-1,2,3-triazol-2-yl)thieno[2,3-d]pyrimidine-2,4(1H,3H)-dione]	2.1 to 4 µg/mL (≈ 3.76 to 7.16 µM)	2.1 to 4 µg/mL (≈ 3.76 to 7.16 µM)	2 to 10 nM	2.1 to 4 µg/mL (≈ 3.76 to 7.16 µM)	100 to 1000 nM
COc1ccc(F)cc1C(=O)Cn1c(=O)n([C@H]2CCN(C)C2=O)c(=O)c2c(C)c(-n3nccn3)sc21 [Compound I-161, (S)-1-(2-(5-fluoro-2-methoxyphenyl)-2-oxoethyl)-5-methyl-3-(1-methyl-2-oxopyrrolidin-3-yl)-6-(2H-1,2,3-triazol-2-yl)thieno[2,3-d]pyrimidine-2,4(1H,3H)-dione]	2.1 to 4 µg/mL (≈ 4.1 to 7.8 µM)	2.1 to 4 µg/mL (≈ 4.1 to 7.8 µM)	100 to 1000 nM	2.1 to 4 µg/mL (≈ 4.1 to 7.8 µM)	> 1000 nM
COc1ccccc1C(=O)Cn1c(=O)n([C@H]2CCN(C)C2=O)c(=O)c2c(C)c(-n3nccn3)sc21 [Compound I-163, (S)-1-(2-(2-methoxyphenyl)-2-oxoethyl)-5-methyl-3-(1-methyl-2-oxopyrrolidin-3-yl)-6-(2H-1,2,3-triazol-2-yl)thieno[2,3-d]pyrimidine-2,4(1H,3H)-dione]	2.1 to 4 µg/mL (≈ 4.25 to 8.09 µM)	2.1 to 4 µg/mL (≈ 4.25 to 8.09 µM)	100 to 1000 nM	2.1 to 4 µg/mL (≈ 4.25 to 8.09 µM)	> 1000 nM
COc1ccccc1[C@@H](O)Cn1c(=O)n([C@H]2CCN(C)C2=O)c(=O)c2c(C)c(-n3nccn3)sc21 [Compound I-165, 1-((R)-2-hydroxy-2-(2-methoxyphenyl)ethyl)-5-methyl-3-((S)-1-methyl-2-oxopyrrolidin-3-yl)-6-(2H-1,2,3-triazol-2-yl)thieno[2,3-d]pyrimidine-2,4(1H,3H)-dione]	2.1 to 4 µg/mL (≈ 4.23 to 8.06 µM)	2.1 to 4 µg/mL (≈ 4.23 to 8.06 µM)	2 to 10 nM	2.1 to 4 µg/mL (≈ 4.23 to 8.06 µM)	10 to 100 nM
COc1ccccc1C(=O)Cn1c(=O)n([C@@H]2CCN(C)C2=O)c(=O)c2c(C)c(-n3nccn3)sc21 [Compound I-167, (R)-1-(2-(2-methoxyphenyl)-2-oxoethyl)-5-methyl-3-(1-methyl-2-oxopyrrolidin-3-yl)-6-(2H-1,2,3-triazol-2-yl)thieno[2,3-d]pyrimidine-2,4(1H,3H)-dione]	2.1 to 4 µg/mL (≈ 4.25 to 8.09 µM)	2.1 to 4 µg/mL (≈ 4.25 to 8.09 µM)	10 to 100 nM	2.1 to 4 µg/mL (≈ 4.25 to 8.09 µM)	100 to 1000 nM
COc1ccc(F)cc1[C@H](Cn1c(=O)n([C@H]2CCN(C)C2=O)c(=O)c2c(C)c(-n3nccn3)sc21)OC [Compound I-168, 1-((R)-2-(5-fluoro-2-methoxyphenyl)-2-methoxyethyl)-5-methyl-3-((S)-1-methyl-2-oxopyrrolidin-3-yl)-6-(2H-1,2,3-triazol-2-yl)thieno[2,3-d]pyrimidine-2,4(1H,3H)-dione]	2.1 to 4 µg/mL (≈ 3.97 to 7.57 µM)	2.1 to 4 µg/mL (≈ 3.97 to 7.57 µM)	2 to 10 nM	2.1 to 4 µg/mL (≈ 3.97 to 7.57 µM)	10 to 100 nM
COc1ccccc1[C@@H](O)Cn1c(=O)n([C@@H]2CCN(C)C2=O)c(=O)c2c(C)c(-n3nccn3)sc21 [Compound I-169, 1-((R)-2-hydroxy-2-(2-methoxyphenyl)ethyl)-5-methyl-3-((R)-1-methyl-2-oxopyrrolidin-3-yl)-6-(2H-1,2,3-triazol-2-yl)thieno[2,3-d]pyrimidine-2,4(1H,3H)-dione]	2.1 to 4 µg/mL (≈ 4.23 to 8.06 µM)	2.1 to 4 µg/mL (≈ 4.23 to 8.06 µM)	0.7 to 2 nM	2.1 to 4 µg/mL (≈ 4.23 to 8.06 µM)	10 to 100 nM
COc1ccc(F)cc1[C@H](Cn1c(=O)n([C@@H]2CCN(C)C2=O)c(=O)c2c(C)c(-n3nccn3)sc21)OC [Compound I-170, 1-((R)-2-(5-fluoro-2-methoxyphenyl)-2-methoxyethyl)-5-methyl-3-((R)-1-methyl-2-oxopyrrolidin-3-yl)-6-(2H-1,2,3-triazol-2-yl)thieno[2,3-d]pyrimidine-2,4(1H,3H)-dione]	2.1 to 4 µg/mL (≈ 3.97 to 7.57 µM)	2.1 to 4 µg/mL (≈ 3.97 to 7.57 µM)	0.7 to 2 nM	2.1 to 4 µg/mL (≈ 3.97 to 7.57 µM)	10 to 100 nM
COc1ccccc1[C@H](Cn1c(=O)n([C@H]2CCN(C)C2=O)c(=O)c2c(C)c(-n3nccn3)sc21)OC [Compound I-171, 1-((R)-2-methoxy-2-(2-methoxyphenyl)ethyl)-5-methyl-3-((S)-1-methyl-2-oxopyrrolidin-3-yl)-6-(2H-1,2,3-triazol-2-yl)thieno[2,3-d]pyrimidine-2,4(1H,3H)-dione]	2.1 to 4 µg/mL (≈ 4.11 to 7.83 µM)	2.1 to 4 µg/mL (≈ 4.11 to 7.83 µM)	2 to 10 nM	2.1 to 4 µg/mL (≈ 4.11 to 7.83 µM)	10 to 100 nM
COc1ccccc1[C@H](Cn1c(=O)n([C@@H]2CCN(C)C2=O)c(=O)c2c(C)c(-n3nccn3)sc21)OC [Compound I-172, 1-((R)-2-methoxy-2-(2-methoxyphenyl)ethyl)-5-methyl-3-((R)-1-methyl-2-oxopyrrolidin-3-yl)-6-(2H-1,2,3-triazol-2-yl)thieno[2,3-d]pyrimidine-2,4(1H,3H)-dione]	2.1 to 4 µg/mL (≈ 4.11 to 7.83 µM)	2.1 to 4 µg/mL (≈ 4.11 to 7.83 µM)	0.7 to 2 nM	2.1 to 4 µg/mL (≈ 4.11 to 7.83 µM)	10 to 100 nM
COc1ccc(F)cc1[C@H](Cn1c(=O)n([C@H]2CCCNC2=O)c(=O)c2c(C)c(-n3nccn3)sc21)O[C@H]1CC[C@@H](O)CC1 [Compound I-173, 1-((R)-2-(S-fluoro-2-methoxyphenyl)-2-(((1s, 4S)-4-hydroxycyclohexyl)oxy)ethyl)-5-methyl-3-((S)-2-oxopiperidin-3-yl)-6-(2H-1,2,3-triazol-2-yl)thieno[2,3-d]pyrimidine-2,4(1H, 3H)-dione]	2.1 to 4 µg/mL (≈ 3.43 to 6.53 µM)	2.1 to 4 µg/mL (≈ 3.43 to 6.53 µM)	0.7 to 2 nM	2.1 to 4 µg/mL (≈ 3.43 to 6.53 µM)	2 to 10 nM
